Laboratory results published in paper PMC11306511, “Combining VPS34 inhibitors with STING agonists enhances type I interferon signaling and anti‐tumor efficacy” (Molecular Oncology, 2024).

Assays:
B16-F10 tumors = assay: Tumor growth inhibition study, B16-F10 tumor-bearing mice; assay type: in vivo, mouse; conditions: B16-F10 in C57BL/6 mice; SB02024 20 mg·kg^−1 oral daily day 7-16; ADU-S100 10 μg intratumoral days 9, 11, 13, 15
Text: Study protocols were approved by the Institutional Animal Care and Use Committee of CrownBio in China (AN‐1903‐05‐313) or the LIH's animal welfare committee in Luxembourg (agreement LECR‐2018‐12). Mice were handled according to European Union guidelines, adhering to the principles of replacement, reduction, and refinement (3Rs). Animals were housed in appropriate accommodations conducive to their well‐being, with provisions for housing, feeding, and environmental enrichment to meet their physical and behavioral needs. Highly skilled personnel were involved in carrying out procedures related to the animal experiments to ensure proper care and handling. Female 6 to 8‐week‐old BALB/c (supplied by Shanghai Lingchang Biotechnology Co., Shanghai, China; n = 14) or C57BL/6 mice (supplied by Janvier Labs, Le Genest‐Saint‐Isle, France; n = 40) were injected into the right flank with 1 × 10^6 Renca or 0.2 × 10^6 B16‐F10 cells, respectively, resuspended in 100 μL PBS (day 0). When tumors were palpable (day 9 for Renca, day 7 for B16‐F10 tumors), mice were randomly assigned into two groups for the Renca model with n = 6 (vehicle) and n = 8 (SB02024) or four groups for the B16‐F10 model with n = 10. […] Tumor growth was measured using a caliper every other day and estimated as follows: volume (cm^3) = (width)^2 × length × 0.5.

[1] = parameters: method as in PMID 34070756; conditions: cited from earlier work

## Nc1ncnc2c1ncn2[C@@H]1O[C@@H]2COP(=O)([S-])O[C@@H]3[C@H](O)[C@@H](COP([O-])(=S)O[C@H]2[C@H]1O)O[C@H]3n1cnc2c(N)ncnc21.[Na+].[Na+] (some centres unmarked) [ADU-S100, reference compound]
B16-F10 tumors
  % TGI (percent tumor growth inhibition compared to vehicle control): 36%
[1]
  anti-tumor efficacy in clinical trials: only limited
